Key:
[1] = test system: SH-SY5Y cells; experiment: Acidic vesicle formation in SH-SY5Y cells (LysoTracker Deep Red); format: cell-based, human; conditions: 24 hours, relative to DMSO-treated control
Experimental: This is evidence for significant stimulation of autophagy by this compound under these conditions. SH-SY5Y cells are a human-derived neuroblastoma cell line widely used in in vitro models of neurological disorders (Ross R A, Spengler B A, Biedler J L. Coordinate morphological and biochemical interconversion of human neuroblastoma cells. J Natl Cancer Inst. 1983 October; 71 (4): 741-7. PMID: 6137586).
A brief description of the procedure employed is outlined here: • Day 1: Cells were seeded at 15K cells/well in the middle 60 wells of 6×96 well Cellvis imaging plates • Day 2: Media was replaced with 90 μl of DMEM/F12 (+10% FBS/1% P/S) containing NucBlue Live and the cells were treated with 10 μl of compound (10× concentrated) in triplicate for 24 hours. • Day3: Treatment was removed and cells were incubated for 30 minutes with LysoTracker™ Deep Red dye. Cells were washed twice with media and immediately imaged on EVOS M7000 at ×20 (6 images per well, 30 minutes imaging time/plate). Images were analysed using Celleste Image analysis software.

[2] = test system: Human osteosarcoma U2OS cells; experiment: Assay to measure lysosome and autolysosome (acidic vesicle) formation in U2OS cells; format: cell-based; conditions: for activation at 0.8 µM: Homo sapiens, concentration of 0.8 μM, read-out: Activity (percentage increase in acidic vesicle formation over the DMSO-treated control); for acidic vesicle formation relative to a DMSO-treated control: concentration of 10 μM, 24 hours
Experimental: Lysosomes play a fundamental role in the autophagic pathway by fusing with autophagosomes and creating ‘autolysosomes’ in order to digest their contents. Stimulation of lysosome and autolysosome formation by a compound is indicative of a stimulation of autophagy. The ability of compounds to stimulate lysosome and autolysosome formation, and thus autophagy, in live cells was assessed via fluorescent microscopy using various fluorescent stains for labelling and tracking acidic organelles (including lysosomes and autolysosomes) such as: LysoView™ 650 (70059 and 70059-T, Biotium), Lyso View™633 (70058 and 70058-T, Biotium) and LysoTracker™ Deep Red (L12492, ThermoFisher Scientific). The cellular phenotype was quantitatively assessed for the induction of acidic vesicle formation and compared to a non-treated control, thus providing a measure of the ability of the compound under investigation to stimulate autophagy.
Representative procedure using LysoView™ 633 dye or LysoTracker™ Deep Red dye: Human osteosarcoma U2OS cells (40,000 cells/well) were seeded in a 24 well glass bottom plate (Sensoplate, Greiner Bio-One) and were incubated overnight in a humidified atmosphere at 37° C. and 5% CO2. Cells were grown in DMEM (Gibco) supplemented with 10% Fetal Bovine Serum (FBS) and 100 units/ml penicillin and 100 μg/ml streptomycin (Invitrogen). After the attachment period, cells were treated with different compounds of interest (at various concentrations in DMSO) or DMSO (non-treated control) in cell culture medium and were incubated for 24 hours. Compound-containing medium was removed and cells were incubated with pre-warmed cell culture medium containing 1× Lyso View™ 633 (70058 and 70058-T, Biotium) or 50 nM LysoTracker™ Deep Red (L12492, ThermoFisher Scientific) for 45 minutes at 37° C. Finally, cell nuclei were stained for 10 minutes using Hoechst 33342 (1 μg/mL) and then the medium was replaced with fresh medium. The 24 well plate was then fitted into a heated stage on the microscope and cells maintained at 37° C. Images were captured using appropriate filter set for Cy5 and DAPI detection with the EVOS M7000 Microscope (ThermoFisher Scientific). The cellular phenotype was visually assessed for the induction of acidic vesicle formation relative to the non-treated control; multiple images were acquired and analysed using ImageJ or Cell Profiler.

[3] = test system: primary culture of dopaminergic Tyrosine hydroxylase (TH)-positive neurons; experiment: Cellular model of Parkinson's disease (MPTP/MPP+ injury); format: cell-based, rat
Text: This model (run by Neuro-Sys SAS, France) is based on a primary culture of dopaminergic Tyrosine hydroxylase (TH)-positive neurons injured with the dopaminergic neurons-specific toxin (DA-toxin) 1-methyl-4-phenyl-1,2,3,6 tetrahydropyridine (MPTP, a prodrug of MPP^+) (Dauer and Przedborski, 2003). Any substances reducing DA-toxin neurotoxicity may be useful as a new therapeutic agent for the treatment or prevention of PD.
Primary culture of mesencephalic neurons: Rat dopaminergic neurons were cultured as described by Visanji et al., 2008 and Callizot et al., 2019. Briefly, pregnant female rat (Wistar) of 15 days of gestation were killed using a deep anesthesia with CO2 chamber and a cervical dislocation. The midbrains obtained from 15-day-old rat embryos (Janvier, France) were dissected under a microscope. The embryonic midbrains will be removed and placed in ice-cold medium of Leibovitz (L15) containing 2% of Penicillin-Streptomycin (PS) and 1% of bovine serum albumin (BSA). The ventral portion of the mesencephalic flexure, a region of the developing brain rich in dopaminergic neurons, was used for the cell preparations.
The midbrains were dissociated by trypsinisation for 20 min at 37° C. (solution at a final concentration of 0.05% trypsin and 0.02% EDTA). The reaction was stopped by the addition of Dulbecco's modified Eagle's medium (DMEM) containing DNAase I grade II (0.5 mg/mL) and 10% of foetal calf serum (FCS). Cells were then mechanically dissociated by 3 passages through a 10 ml pipette. Cells were then centrifuged at 180×g for 10 min at +4° C. on a layer of BSA (3.5%) in L15 medium. The supernatant was discarded, and the cell pellets re-suspended in a defined culture medium consisting of Neurobasal supplemented with B27 (2%), L-glutamine (2 mM) and 2% of PS solution and 10 ng/mL of Brain-derived neurotrophic factor (BDNF) and 1 ng/ml of Glial-Derived Neurotrophic Factor (GDNF). Viable cells were counted in a Neubauer cytometer using the trypan blue exclusion test. The cells were seeded at a density of 40,000 cells/well in 96 well-plates (pre-coated with poly-L-lysine) and maintained in a humidified incubator at 37° C. in 5% CO2/95% air atmosphere. Half of the medium was changed every 2 days with fresh medium. The wells of first and last lines and columns […] (to avoid any edge effect) and were be filled with sterile water.
• i) Pre-incubation. On day 6 of culture, the test compounds were dissolved in PBS or DMSO and incubated for 1 hour before the MPTP exposure. • ii) Injury. One hour after the application of test compound, MPTP was added to a final concentration of 4 μM, diluted in control medium still in presence of compounds/inhibitors for 48 h. Test compounds were tested on one culture in 96-well plate (n=6 culture wells per condition).
Immunostaining: TH and α-Synuclein. 48 Hours after intoxication, the cell culture supernatant was removed, and the cells were fixed by a solution of 4% paraformaldehyde in PBS, pH=7.3 for 20 min at room temperature. The cells were washed twice in PBS, and then permeabilized. Non-specific sites were blocked with a solution of PBS containing 0.1% of saponin and 1% FCS for 15 min at room temperature. The cultures were incubated with: (a) monoclonal anti-Tyrosine Hydroxylase (TH) antibody produced in mouse at dilution of 1/10000 in PBS containing 1% FCS, 0.1% saponin, for 2 hours at room temperature, and (b) polyclonal anti-alpha synuclein (α-synuclein) antibody produced in rabbit at dilution of 1/200 in PBS containing 1% FCS, 0.1% saponin, for 2 h at room temperature.
Automatic computer analysis. For each condition, 20 pictures (representing the whole well area) were automatically taken using ImageXpress® (Molecular Devices) at 10× magnification (20 pictures, for TH and α-synuclein into TH neurons) using the same acquisition parameters. From images, analyses was directly and automatically performed by MetaXpress® (Molecular Devices). […]

SMILES | Fold change in acidic vesicle formation at compound concentration of 0.8 μM [1] | Fold change in acidic vesicle formation at compound concentration of 10 μM [1] | activation at 0.8 µM [2] | acidic vesicle formation relative to a DMSO-treated control [2] | effects in the in vitro model of PD based on MPP+ injury [3] | increase in the number of dopaminergic TH positive neurons ([3]; 100 nM, compared to MPTP injury alone) | decrease in α-syn area per dopaminergic TH positive neuron ([3]; 1 μM, 500 nM and 100 nM, compared to MPP+ injury alone)
CC(C)(C)N1CCC(NC(=O)c2csc(-c3cnn(-c4ccccc4)c3)n2)CC1 [Compound 248, N-(1-tert-butylpiperidin-4-yl)-2-(1-phenyl-1H-pyrazol-4-yl)-1,3-thiazole-4-carboxamide] | 2.2 fold | 1.9 fold | – | – | – | – | –
C[C@H]1CN(C(=O)c2cc(-c3cnn(-c4ccccc4)c3)c[nH]2)CCN1 [Compound 3, (3S)-3-methyl-1-[4-(1-phenyl-1H-pyrazol-4-yl)-1H-pyrrole-2-carbonyl]piperazine] | 1.6 fold | 3.5 fold | – | – | – | – | –
CCN1CCC(NC(=O)c2cc(-c3nnc(-c4ccccc4)s3)cs2)CC1 [Compound 259, N-(1-ethylpiperidin-4-yl)-4-(5-phenyl-1,3,4-thiadiazol-2-yl)thiophene-2-carboxamide] | 2.3 fold | 3.6 fold | 10 to 30% | only a slight increase | – | – | –
CCN1CCC(N(C)C(=O)c2cc(-c3cnn(-c4ccccc4)c3)c[nH]2)CC1 [Compound 256, N-(1-ethylpiperidin-4-yl)-N-methyl-4-(1-phenyl-1H-pyrazol-4-yl)-1H-pyrrole-2-carboxamide] | 1.8 fold | 2.7 fold | 30 to 50% | – | – | – | –
O=C(O)C1CCCN1C(=O)c1csc(-c2cnn(-c3ccccc3)c2)n1 (stereo not shown) [Compound 144, 1-[2-(1-phenyl-1H-pyrazol-4-yl)-1,3-thiazole-4-carbonyl]pyrrolidine-2-carboxylic acid] | – | – | – | – | positive effects | 25% | > 15%
C[C@H]1CN(C(=O)c2csc(-c3cnn(-c4ccccc4)n3)n2)CCN1 [Compound 238, (3S)-3-methyl-1-[2-(2-phenyl-2H-1,2,3-triazol-4-yl)-1,3-thiazole-4-carbonyl]piperazine] | 2.1 fold | 2.9 fold | – | – | – | – | –
CCN1CCC(NC(=O)c2cc(-c3cnn(-c4ccccc4)c3)c[nH]2)CC1 [Compound 257, N-(1-ethylpiperidin-4-yl)-4-(1-phenyl-1H-pyrazol-4-yl)-1H-pyrrole-2-carboxamide] | 1.9 fold | 2.6 fold | 50 to 100% | – | – | – | –
CCN1CCC(N(C)C(=O)c2csc(-c3cnn(-c4ccccn4)c3)n2)CC1 [Compound 221, N-(1-ethylpiperidin-4-yl)-N-methyl-2-[1-(pyridin-2-yl)-1H-pyrazol-4-yl]-1,3-thiazole-4-carboxamide] | – | – | 10 to 30% | – | – | – | –
C[C@H]1CN(C(=O)c2csc(-c3cnn(-c4cccnc4)c3)n2)CCN1 [Compound 223, (3S)-3-methyl-1-{2-[1-(pyridin-3-yl)-1H-pyrazol-4-yl]-1,3-thiazole-4-carbonyl}piperazine] | – | – | 10 to 30% | only a slight increase | – | – | –
CCN1CCC(N(C(=O)c2csc(-c3cnn(-c4ccccc4)c3)n2)C(C)C)CC1 [Compound 218, N-(1-ethylpiperidin-4-yl)-2-(1-phenyl-1H-pyrazol-4-yl)-N-(propan-2-yl)-1,3-thiazole-4-carboxamide] | 1.6 fold | 4.8 fold | 30 to 50% | – | – | – | –

— US20250034127A1, “AUTOPHAGY INDUCING COMPOUNDS AND USES THEREOF, IN PARTICULAR FOR DISEASES OF THE CNS” (Samsara Therapeutics Inc., priority 2021, published 2025)
